From patent publication US20150253330A1, “PRE-SELECTION OF SUBJECTS FOR THERAPEUTIC TREATMENT WITH AN HSP90 INHIBITOR BASED ON HYPOXIC STATUS” (Synta Pharmaceuticals Corp., priority 2012, published 2015)
Where two headings read alike, the source gives them in different places.

Columns and labels:
[1] = tested on: AGS (wt-p53 and mut-KRAS); experiment: 72 hr viability by CTG, gastric cancer cells; format: cell-based; conditions: viability by CTG (upper)
Description: (§1) Many of the oncoproteins associated with gastric cancer and Hsp90 client proteins including HER2, MET, RAS and the FGFR family. Ganetespib was evaluated for its effect on the growth of AGS (wt-p53 and mut-KRAS) and MKN45 (wt-p53, wt-KRAS, MET amplified) gastric cancer cells.

[2] = tested on: MKN45 (wt-p53, wt-KRAS, MET amplified); experiment: 72 hr viability by CTG, gastric cancer cells; format: cell-based; conditions: Homo sapiens, MKN-45, viability by CTG (upper)
Description: as §1

[3] = tested on: pancreatic cancer; conditions: cited from earlier work
[4] = tested on: melanoma; conditions: cited from earlier work
[5] = tested on: prostate cancer; conditions: cited from earlier work
[6] = tested on: A549 NSCLC cells; experiment: Mouse xenograft tumor model, ganetespib and BEZ235 (Example 9); format: in vivo, mice; conditions: ganetespib 50 mg/kg weekly i.v.; BEZ235 10 mg/kg 5 times a week p.o.; particularly at later time points; FIG. 8
From the text: Female immunodeficient CD-1 (nude) mice (Charles River Laboratories, Wilmington, Mass.) were maintained in a pathogen-free environment, and all in vivo procedures were approved by the Synta Pharmaceuticals Corp. Institutional Animal Care and Use Committee. A549 NSCLC cells (7.5×10^6) were subcutaneously implanted into the animals. Mice bearing established tumors (100-200 mm^3) were randomized into treatment groups of 8 and i.v. dosed via the tail vein with either vehicle, ganetespib formulated in 10/18 DRD (10% DMSO, 18% Cremophor RH 40, 3.6% dextrose, 68.4% water) or p.o. dosed with BEZ235 formulated in PEG300/NMP (90% PEG300, 10% N-Methylpyrrolidone). Animals were treated with ganetespib at 50 mg/kg weekly or BEZ235 at 10 mg/kg 5 times a week, either alone or in combination. Tumor growth inhibition was determined as described previously. See Proia et al, PLoS One. 2011; 6(4):e18552.

[7] = tested on: HIF-1α and VEGF; experiment: Western blot of HIF-1α and VEGF in pancreatic cancer cell lines; format: cell-based; conditions: 50 nM, 24 h
Description: It's postulated that functional inhibition of Hsp90 by ganetespib can inhibit angiogenesis and growth in vitro and in vivo models of pancreatic cancer. PANC-1 and HPAC cell lines were treated with vehicle or G (50 nM) for 24 h and lysates were analyzed by Western blot. Egg CAM and matrigel plug assays were performed to quantify the effects of ganetespib on angiogenesis. Efficacy of ganetespib (100 mg/kg) was assessed in mice bearing HPAC and ASPC-1 xenograft.
Primary antibodies specific to Hsp90, HIF-1α, VEGF, Actin and HRP conjugated secondary antibodies (Santa Cruz Biotechnology, California and Cell Signaling Technology, USA) were used for Western blot. Ganetespib was provided by Synta Pharmaceuticals, Lexington, Mass. and Matrigel was purchased from BD Biosciences.
Cells were harvested at the end of treatment and lysed in the RIPA protein extraction buffer (Sigma-Aldrich, Saint Louis, Mo., USA) containing the protease inhibitor cocktail. Equal amounts of protein fractions of lysates were resolved over SDS-PAGE and transferred on to PVDF membrane. Membranes were incubated with primary antibodies followed by HRP-conjugated secondary antibodies. Bound antibodies were visualized using enhanced chemiluminescence. To confirm equal loading, membranes were verified and re-probed with an antibody specific for the housekeeping gene, anti-β-actin.

[8] = tested on: RCC; conditions: cited from earlier work
[9] = tested on: colon cancer first line; conditions: cited from earlier work
[10] = tested on: colon cancer second line; conditions: cited from earlier work
[11] = tested on: Chk1 and Chk2 phosphorylation; experiment: Western blot of Chk1 and Chk2 phosphorylation after bleomycin in Detroit 562 cells; format: cell-based; conditions: Detroit 562, bleomycin (5 μM)
Description: Protein expression was measured at the indicated time points after bleomycin treatment.
Cell extracts from Detroit 562 head and neck cancer cells were treated with 100 nM of ganetespib 24 hours prior to receiving the DNA damaging agent bleomycin (5 μM). Protein expression was measured at the indicated time points after bleomycin treatment.

## C=CCNC1=C2C[C@@H](C)C[C@H](OC)[C@H](O)[C@@H](C)/C=C(\C)[C@H](OC(N)=O)[C@@H](OC)/C=C\C=C(/C)C(=O)NC(=CC1=O)C2=O [17-AAG, 17-allyamino-geldanamycin]
[1]
  IC50: 50 nM
[2]
  IC50: 1 nM

## bevacizumab: anti-cancer agent cited from large randomized phase 2 and phase 3 studies
[3]; high LDH, 95% CI 0.43-0.82
  OS HR: 0.59
[3]; normal LDH, 95% CI 0.78-1.24
  HR: 0.98
[4]; high LDH, 95% CI 0.32-0.88
  OS HR: 0.53
[4]; normal LDH, 95% CI 0.73-1.25
  OS HR: 1.25
[5]; high LDH, P=0.029
  OS HR: 0.80
[5]; normal LDH, P=0.87
  OS HR: 1.02

## Cn1c(=O)n(-c2ccc(C(C)(C)C#N)cc2)c2c3cc(-c4cnc5ccccc5c4)ccc3ncc21 [BEZ235, reference compound]
[6]
  Average tumor volume as compared to vehicle: significantly reduced

## 3-2,4-dihydroxy-5-isopropyl-phenyl)-4-(1-methyl-indol-5-yl)-5-hydroxy-[1,2,4]triazole [ganetespib]
[7]
  HIF-1α and VEGF protein levels: significant reduction

## CC(=O)O[C@@]12CO[C@@H]1C[C@H](O)[C@@]1(C)C(=O)[C@H](O)C3=C(C)[C@@H](OC(=O)[C@H](O)[C@@H](NC(=O)OC(C)(C)C)c4ccccc4)C[C@@](O)([C@@H](OC(=O)c4ccccc4)[C@H]21)C3(C)C [Docetaxel]
[1]
  IC50: 0.3 nM
[2]
  IC50: 0.1 nM

## CO[C@H]1C[C@@H]2CC[C@@H](C)[C@@](O)(O2)C(=O)C(=O)N2CCCC[C@H]2C(=O)O[C@H]([C@H](C)C[C@@H]2CC[C@@H](OC(=O)C(C)(CO)CO)[C@H](OC)C2)CC(=O)[C@H](C)/C=C(\C)[C@@H](O)[C@@H](OC)C(=O)[C@H](C)C[C@H](C)/C=C/C=C/C=C/1C [temsirolimus]
[8]; high LDH, P=0.002
  OS HR: 0.56
[8]; normal LDH, P=0.51
  OS HR: 0.90

## Clc1ccc(Nc2nnc(Cc3ccncc3)c3ccccc23)cc1 [vatalanib]
[9]; LDH group not given, P=0.188
  PFS HR: 0.88
[9]; high LDH, P=0.009
  PFS HR: 0.67
[10]; LDH group not given, P=0.01
  PFS HR: 0.83
[10]; high LDH, P<0.001
  PFS HR: 0.63

## Bleomycin [reference compound]
[11]
  Chk1 and Chk2 phosphorylation: increased both Chk1 and Chk2 phosphorylation
